Assay results published in US20170029841A1, “METHODS AND COMPOSITIONS FOR SELECTIVE REGULATION OF PROTEIN EXPRESSION” (priority 2015, published 2017).

B1: SEQ ID NO: 13: recombinant mts-siRNA target element sequence (nucleic acid)
DNA: ACGTGATAACTTCTATGCTGGCTGTGATTGCTAGTTGAAGAAAAGAATAGATATGGTGACATCAAGTTTCCACTGCGTGACG
modifications: chemistry not fully specified; the letters are possibly those of the target site

Columns and labels:
[1] = system: maize tissue pools (tassel, ear, leaf, root, stem); test: siRNA profiling microarray assay of mts-siRNA sequences across maize tissues; details: for 01DKD2 V8-V9 Tassel relative signal value: germplasm 01DKD2, V8-V9 tassel; for 01DKD2 V10-V12 Tassel relative signal value: germplasm 01DKD2, V10-V12 tassel; for 01DKD2 Other Tissue relative signal value: germplasm 01DKD2, combined signals from other tissue; for LH244 V8-V9 Tassel relative signal value: germplasm LH244, V8-V9 tassel; for LH244 V10-V12 Tassel relative signal value: germplasm LH244, V10-V12 tassel; for LH244 Other Tissue relative signal value: germplasm LH244, combined signals from other tissue
Summary of the method: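 Total RNA from LH244 or 01DKD2 inbred maize tissue pools hybridized to microfluidic chips with triplicate complementary probes for 1,200 mts-siRNAs. Signals background-subtracted and normalized, reported as relative values with standard error. Differential expression by t-test, p<0.05.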

[2] = system: transgenic maize R0 plants (double copy events); test: R0 plant greenhouse glyphosate spray: vegetative tolerance and induced male sterility; type: in vivo; details: vector configuration A; for % Completely Male-sterile: no anther extrusion up to S90+12 after V8 glyphosate
Experimental: Transformation vectors containing the recombinant DNA constructs were used with an Agrobacterium-based transformation method and maize immature embryos and techniques known in the art. Leaf samples of R0 plants were collected and molecular analysis was conducted to select transgenic plants containing a single copy (one insertion) or a double copy (two independent insertions) of the recombinant DNA construct and no presence of vector backbone. Single copy events were not sprayed with glyphosate and were selfed and advanced for R1 seed collection, while double copy events were used for R0 glyphosate spray to assess vegetative tolerance and induced male sterility. Transgenic plants that were not sprayed with glyphosate had normal anthesis, normal pollen shedding, and normal pollen development as determined by Alexandar staining and microscopic observation.
Double copy R0 events were used in testing to approximate a single copy homozygous event. Plants were sprayed with glyphosate at two different growth stages to determine if the presence of the mts-siRNA target element in the recombinant DNA construct provided vegetative glyphosate tolerance and glyphosate-induced tassel sterility. The plants were sprayed in a greenhouse with 1× glyphosate (0.75 lb ae/acre) applied at the V5 stage followed by 1× glyphosate (0.75 lb ae/acre) applied at the V8 stage. Seven days after the V5 stage glyphosate application, plants were scored for vegetative injury with scores of ≦10% injury considered as showing vegetative glyphosate tolerance (% Vegetative Tolerant). Male sterility was measured in two ways. […] Anthers were then collected and dissected to microscopically observe pollen development. Anthers for each event were tested for no viable pollen grains produced as detected by Alexandar staining under microscopic observation and scored as not producing any viable pollen (% No Pollen). In plants not sprayed with glyphosate, tassel development, anther extrusion, and pollen development were normal.
The mts-siRNA target elements were tested in multiple transformation vector configurations. Each transformation vector was used to produce multiple R0 plants with each R0 plant representing a unique transgenic event made using the same transformation vector. Data for three different transformation vector configurations are provided as Tables 11 and 12.

| Molecule | 01DKD2 V8-V9 Tassel relative signal value [1] | 01DKD2 V10-V12 Tassel relative signal value [1] | 01DKD2 Other Tissue relative signal value [1] | LH244 V8-V9 Tassel relative signal value [1] | LH244 V10-V12 Tassel relative signal value [1] | LH244 Other Tissue relative signal value [1] | % Vegetative Tolerant ([2]; glyphosate 0.75 lb ae/acre at V5 then V8, <=10% injury 7 days after V5 spray, listed as 13) [%] | % Completely Male-sterile [2] | % Completely Male-sterile ([2]; listed as 13) [%] | % No Pollen ([2]; no viable pollen by Alexandar staining) [%] |
| --- | --- | --- | --- | --- | --- | --- | --- | --- | --- | --- |
| SEQ ID NO: 73: mts-siRNA sequence aligning to cDNA SEQ ID NO: 22 (AAGCTATCGATTCCCTAAGTGCCA; expressed or natural sequence) | 37.5 | 1695.5 | 2 | 1058.5 | 2395.7 | 4.5 | – | – | – | – |
| SEQ ID NO: 74: mts-siRNA sequence aligning to cDNA SEQ ID NO: 22 (AGGCCTCCCTTCCCTATG; expressed or natural sequence) | 43.5 | 171 | 45.8 | 83.5 | 129 | 164.2 | – | – | – | – |
| SEQ ID NO: 75: mts-siRNA sequence aligning to cDNA SEQ ID NO: 22 (ACAGTGACTCACCAGTGCATGCAC; expressed or natural sequence) | 3 | 257 | 5 | 53 | 237.3 | 3.3 | – | – | – | – |
| SEQ ID NO: 76: mts-siRNA sequence aligning to cDNA SEQ ID NO: 22 (ACAGTGACTCACCAGTGCATG; expressed or natural sequence) | 2.5 | 276.5 | 4 | 55 | 252.3 | 5.7 | – | – | – | – |
| SEQ ID NO: 77: mts-siRNA sequence aligning to cDNA SEQ ID NO: 22 (AAGGCAAGAAGGTGCTTGTTGTC; expressed or natural sequence) | 0.5 | 225 | 2.5 | 180.5 | 302.7 | 4.1 | – | – | – | – |
| SEQ ID NO: 78: mts-siRNA sequence aligning to cDNA SEQ ID NO: 22 (GCATGCACTGGTGAGTCACTGTTG; expressed or natural sequence) | 3 | 715.5 | 4.5 | 47.5 | 642.7 | 1 | – | – | – | – |
| SEQ ID NO: 79: mts-siRNA sequence aligning to cDNA SEQ ID NO: 22 (CAAGGCAAGAAGGTGCTTGTTGTCC; expressed or natural sequence) | 5 | 290.5 | 2 | 197.5 | 269.3 | 1.9 | – | – | – | – |
| SEQ ID NO: 80: mts-siRNA sequence aligning to cDNA SEQ ID NO: 22 (CATCAACGACTACAACGGTGAA; expressed or natural sequence) | 2.5 | 230 | 0.5 | 138 | 383.3 | 0.7 | – | – | – | – |
| SEQ ID NO: 81: mts-siRNA sequence aligning to cDNA SEQ ID NO: 22 (ACCATCAACGACTACAACGGTGAA; expressed or natural sequence) | 1 | 320 | 0 | 207 | 470.3 | 1.6 | – | – | – | – |
| SEQ ID NO: 82: mts-siRNA sequence aligning to cDNA SEQ ID NO: 22 (AGGCCTCCCTTCCCTATGGTAGCC; expressed or natural sequence) | 71.5 | 211 | 54.8 | 95.5 | 137 | 217.4 | – | – | – | – |
| SEQ ID NO: 83: mts-siRNA sequence aligning to cDNA SEQ ID NO: 22 (CAAGGCAAGAAGGTGCTT; expressed or natural sequence) | 2 | 253.5 | 1.5 | 173 | 303 | 2.5 | – | – | – | – |
| SEQ ID NO: 84: mts-siRNA sequence aligning to cDNA SEQ ID NO: 22 (AAGAAGGTGCTTGTTGTC; expressed or natural sequence) | 0 | 20 | 1 | 13 | 35.7 | 4.4 | – | – | – | – |
| SEQ ID NO: 85: mts-siRNA sequence aligning to cDNA SEQ ID NO: 22 (CAAGGCAAGAAGGTGCTTGTTGT; expressed or natural sequence) | 2.5 | 246 | 2.5 | 184 | 310 | 2.8 | – | – | – | – |
| SEQ ID NO: 86: mts-siRNA sequence aligning to cDNA SEQ ID NO: 22 (CAAGGCAAGAAGGTGCTTGTTGTC; expressed or natural sequence) | 3 | 256.5 | 3 | 173.5 | 241.7 | 2.4 | – | – | – | – |
| SEQ ID NO: 87: mts-siRNA sequence aligning to cDNA SEQ ID NO: 22 (ACCAAGGATGTCGTCACCACCAAT; expressed or natural sequence) | 25 | 91.5 | 2.5 | 56 | 104 | 4.7 | – | – | – | – |
| B1 | – | – | – | – | – | – | 100 | none | 0 | 0 |
